Columns and labels:
[1] = system: NCI-H1975 cells (EGFR L858R + T790M); assay: Cell growth inhibition, methylene blue assay, NCI-H1975; assay type: cell-based, human; conditions: NCI-H1975, Double (L858R + T790M), 72 hours, mean±SD
Procedure: (§1) NCI-H1975 and HCC827 were obtained from the ATCC. QG56 cells were obtained from Prof. Alexander Levitzki's lab, The Silberman Institute of Life Sciences, the Hebrew University, Jerusalem. […] All media were supplemented with fetal bovine serum (FBS, (10%)) and antibiotics (penicillin 10^4 units/L, streptomycin 10 mg/L) (BI, Israel).
(§2) Four human NSCLC cell lines were selected: QG56, HCC827, NCI-H3255 and NCI-H1975. These cell lines harbor the prevailing EGFR variants identified in NSCLC patients, including the wild-type receptor (QG56 cells) and the two most common activating mutations in the TK domain of the receptor: an exon 19 deletion (ΔE746-A750) (HCC827 cells) and the L858R point mutation in exon 21 (NCI-H3255). NCI-H1975 cells were also selected, since on top of the activating L858R point mutation, these cells harbor the secondary T790M mutation in exon 20, which confers resistance to TKI-therapy.
(§3) The median inhibitory concentration (IC50) of the tested compound for cell growth of each cell line was then calculated using GraphPad Prism 5.0 software. Results are presented as mean±SD.

[2] = system: NCI-H3255 cells (EGFR L858R point mutation); assay: Cell growth inhibition, methylene blue assay, NCI-H3255; assay type: cell-based, human; conditions: NCI-H3255, Activating (L858R point mutation), 72 hours, mean±SD
Procedure: as §1, §2, §3

QG56 cells (wt EGFR) = assay: Cell growth inhibition, methylene blue assay, QG56; assay type: cell-based, human; conditions: QG56, None (wt EGFR), 72 hours, mean±SD
Procedure: as §1, §2, §3

HCC827 tumor = assay: PET/CT scans of HCC827 tumor-bearing mice; assay type: in vivo
Procedure: (§4) Dynamic (1 hour) PET scans are performed using Inveon™ MM PET-CT small animal-dedicated scanner (Siemens Medical Solutions, USA). […] Using image analysis tools, volume of interests (VOIs) are drawn for selected organs based on the PET and CT images, and the kinetics of radioactivity distribution in vivo (time-activity curves, (TACs)) is determined for these organs, and primarily for the NSCLC xenografts. The standardized uptake values (SUVs) of each radiolabeled compound in tumors are calculated and compared between the different tumors.
(§5) In additional PET/CT studies, five QG56 (erlotinib-insensitive) and five HCC827 (erlotinib-sensitive) tumor-bearing mice were scanned for 60 minutes following i.v. injection of [^18F]6-O-FEE (7.14±0.7 Mbq).

[3] = Stability of the final formulation in solution (radio-TLC and HPLC); assay type: physicochemical; conditions: final formulation (ethanol/isotonic saline)
Procedure: In brief, a solution of ethylene 1,2-(bis) tosylate (11-13 mg) dissolved in anhydrous MeCN ([…]) was added to the dried [^18F]fluoride. The reaction is heated to 120° C. while stirring for 10 minutes, and the reaction mixture was thereafter cooled to 50° C. The ^18F-fluoroethyltosylate was then further diluted with 1 mL MeCN and transferred to a second reactor that was pre-stirred and heated under argon stream for 5 minutes with 9-11 mg of desmethylerlotinib dissolved in 0.6 mL of DMF and 6-8 mg of NaH. […]
The radiochemical purity was determined using analytical HPLC equipped with C18 analytical Luna column (5 μm, 4.6 mm>250 mm, Luna, phenomenex, Torrance, Calif., USA), with a variable wavelength UV detector operated at λ=254 nm, and a radioactivity detector with NaI crystals, and was routinely greater than 98%. […] Solvent residues were analyzed by GC, using a 1 μL injection of the final product, and compared to a standard solution containing 0.04% acetonitrile and 0.5% acetone. […]

QG56 tumor = assay: PET/CT scans of QG56 tumor-bearing mice; assay type: in vivo; conditions: QG56 tumors, 60 minutes after i.v. injection
Procedure: as §4, §5

| Compound | IC50 [1] [µM] | IC50 [2] [µM] | IC50 (QG56 cells (wt EGFR)) [µM] | higher uptake in HCC827 tumors compared to QG56 tumors (HCC827 tumor; 60 minutes after i.v. injection, mice, p=0.0072) [fold] | reduction of tumor SUV by erlotinib in excess (HCC827 tumor; HCC827 tumor-bearing mice, erlotinib 6.1±0.3 mg/kg 10 minutes prior, p=0.018) | tumor SUV (HCC827 tumor; HCC827 tumor-bearing mice, erlotinib in excess (6.1±0.3 mg/kg) 10 minutes prior to injection) | tumor SUV (HCC827 tumor; HCC827 tumor-bearing mice, without erlotinib pre-administration (blocking comparison)) | tumor SUV (HCC827 tumor; HCC827 tumors, 60 minutes after i.v. injection, mice) | higher uptake in HCC827 tumor compared to NCI-H1975 tumor (HCC827 tumor; preliminary PET/CT study, i.v. injection, 60 minutes scan, mice) | stability in solution [3] | tumor SUV (QG56 tumor) |
| --- | --- | --- | --- | --- | --- | --- | --- | --- | --- | --- | --- |
| C#Cc1cccc(Nc2ncnc3cc(OCCOC)c(OCCF)cc23)c1 [6-O-FEE, 6-O-fluoroethylerlotinib] | 3.6 ± 1 | 0.033 ± 0.04 | 14.4 ± 5 | – | – | – | – | – | – | – | – |
| C#Cc1cccc(Nc2ncnc3cc(OCCOC)c(OCC[18F])cc23)c1 [[^18F]6-O-FEE, [^18F]6-fluoroethylerlotinib] | – | – | – | 2.5 | about 40% | 0.414 | 0.704 | 0.70 | 2.5-3 fold | remained stable in solution for over four hours | 0.28 |
